pIC50: −log10 of the molar value.
Key:
Type in all cases: cell-based
MDA-MB-231 (ER−) = assay: Growth inhibition assay (MTT, 8 days) in MDA-MB-231 breast cancer cells
Protocol: (§1) Compounds of the invention were tested for their ability to inhibit growth in two breast cancer cell lines, MCF-7 (ER+) and MDA-MB-231 (ER−).
(§2) The growth inhibition assays were conducted using routine methods. Briefly, the cells were seeded in 24-well plates at a density of 2000 cells per well in 200 μL of […] growth medium. To each well was added 10 μL of DMSO containing the dissolved test compound; final DMSO concentration in each well was not more than 0.5%. Each test compound was assayed at concentrations of 0.4, 2, 10, and 50 μM. The plates were incubated for eight days, with the media and test solutions replaced every third day. On Day 8, the viable cells were measured by the MTT assay, as described in Mosmann et al. (1983), “Rapid Colorimetric Assay for Cellular Growth and Survival: Application to Proliferation and Cytotoxicity,” J. Immunol. Method. 65:55–63. The optical density at 575 nm of each test well was measured and compared to that for control wells, and the data used to calculate the percentage of growth inhibition at different concentrations. The IC50 value (the concentration of growth inhibitor that results in 50% growth inhibition of the cells in culture relative to control cells not exposed to any growth inhibitor) was determined by plotting dose-response curves.
(§3) The calculated IC50 values are set forth in Table 1, with the results representing the average of at least two experiments conducted for each compound at each of the four concentrations.

[1] = tested on: human lung tumor cells (A427); assay: Anchorage-independent growth inhibition assay (colony formation in soft agar)
Protocol: (§4) An anchorage-independent growth inhibition assay was performed as described in Korytynski, et al. (1996) “The development of an anchorage-independence assay using human lung tumor cells to screen potential chemopreventive agents,” Anticancer Res. 16, 1091–1094; and Sharma, et al. (1997) “The anchorage-independent assay as a screening tool to identify potential chemopreventive agents,” Methods Cell Sci. 19, 9–12. The assay measures the inhibition of colony formation of human lung tumor cells (A427) cells grown in soft agar. In this assay, A427 cells were grown in the presence of the test agent, SR 13196, EGCG or 13-cis-RA Control samples were tested using an equivalent volume of DMSO alone. A concurrent assay for cell survival was also performed.

MCF-7 (ER+) = assay: Growth inhibition assay (MTT, 8 days) in MCF-7 breast cancer cells
Protocol: as §1, §2, §3

[2] = tested on: human lung tumor cells (A427); assay: Concurrent assay for cell survival; details: for surviving cells: highest concentration tested (25 μM)
Protocol: as §4

[3] = Table 1, MTT on Day 8, average of at least two experiments
[4] = Table 2, procedures repeated with additional compounds
[5] = Homo sapiens, MDA-MB-231, Table 2, procedures repeated with additional compounds
[6] = Homo sapiens, MCF7, Table 2, procedures repeated with additional compounds

Compound | Observed Colonies ([1]; 1.56 μM) | Observed Colonies ([1]; 3.12 μM) | Observed Colonies ([1]; 6.25 μM) | Observed Colonies ([1]; 12.5 μM) | Observed Colonies ([1]; 25 μM) | Surviving Fraction ([2]; 1.56 μM) | Surviving Fraction ([2]; 3.12 μM) | Surviving Fraction ([2]; 6.25 μM) | Surviving Fraction ([2]; 12.5 μM) | Surviving Fraction ([2]; 25 μM) | surviving cells [2] | pIC50 (MDA-MB-231 (ER−); [5]) | pIC50 (MCF-7 (ER+); [6]) | other results
COc1cc([C@H]2Oc3cc(O)cc(O)c3C[C@H]2OC(=O)c2cc(C)c(O)c(C)c2)cc(OC)c1OC (relative stereo) [SR 13196] | 268 | 108 | 38 | 28 | 8 | 0.71 | 0.41 | 0.17 | 0.12 | 0.11 | 11% | – | – | pIC50 (MDA-MB-231 (ER−); Homo sapiens, MDA-MB-231, 192 h, Table 1, MTT on Day 8, average of at least two experiments): 4.90; pIC50 (MCF-7 (ER+); Homo sapiens, MCF7, 192 h, Table 1, MTT on Day 8, average of at least two experiments): 4.96
CC1=C(/C=C/C(C)=C/C=C/C(C)=C\C(=O)O)C(C)(C)CCC1 [13-cis-RA] | 310 | 269 | 206 | 179 | 142 | 0.85 | 0.82 | 0.83 | 0.74 | 0.68 | 68% | – | – | % Inhibition (colony formation) ([1]; 1.56 μM): 8%; % Inhibition (colony formation) ([1]; 3.12 μM): 16%; % Inhibition (colony formation) ([1]; 6.25 μM): 28%; % Inhibition (colony formation) ([1]; 12.5 μM): 35%; % Inhibition (colony formation) ([1]; 25 μM): 43%
Oc1cc(O)c2c(c1)O[C@H](c1cc(O)c(O)c(O)c1)[C@H](O)C2 [EGC (2,3-cis), (−)-epigallocatechin] | – | – | – | – | – | – | – | – | – | – | – | – | – | pIC50 (MDA-MB-231 (ER−); [3]): 4.56; pIC50 (MCF-7 (ER+); [3]): 4.53
O=C(O[C@@H]1Cc2c(O)cc(O)cc2O[C@@H]1c1cc(O)c(O)c(O)c1)c1cc(O)c(O)c(O)c1 [EGCG, (−)-epigallocatechin-3-gallate] | 398 | 310 | 282 | 139 | 97 | 0.99 | 0.98 | 0.97 | 0.85 | 0.39 | 39% | – | – | pIC50 (MDA-MB-231 (ER−); [3]): 4.92; pIC50 (MDA-MB-231 (ER−); [4]): 5.24; % Inhibition (colony formation) ([1]; 1.56 μM): 0%; % Inhibition (colony formation) ([1]; 3.12 μM): 19%; % Inhibition (colony formation) ([1]; 6.25 μM): 25%; % Inhibition (colony formation) ([1]; 12.5 μM): 40%; % Inhibition (colony formation) ([1]; 25 μM): 50%; pIC50 (MCF-7 (ER+); [3]): 5.09; pIC50 (MCF-7 (ER+); [4]): 4.77
COc1cc([C@H]2Oc3cc(O)cc(O)c3C[C@H]2OC(=O)c2cc(C)c(O)c(C)c2)cc(OC)c1OC [SR 13197] | – | – | – | – | – | – | – | – | – | – | – | 4.26 | 3.91 | –
COc1cc(OC)c2c(c1)OC(c1cc(O)c(O)c(O)c1)[C@H](OC(=O)c1cc(O)c(O)c(O)c1)C2 (stereo partly drawn) [SR 13198, trans-5,7-DIMETHOXY-2-(3,4,5-TRIHYDROXY-PHENYL)-3,4-DIHYDRO-2H-CHROMAN-3-YL, 3,4,5-TRIHYDROXY-BENZOIC ACID ESTER] | – | – | – | – | – | – | – | – | – | – | – | 4.32 | 4.24 | –
Cc1cc(C)c2c(c1)O[C@H](c1cc(O)c(O)c(O)c1)[C@H](OC(=O)c1cc(O)c(O)c(O)c1)C2 [SR 13912] | – | – | – | – | – | – | – | – | – | – | – | 4.21 | 4.40 | –
Cc1cc(C)c2c(c1)O[C@H](c1cc(O)c(O)c(O)c1)[C@H](OC(=O)c1cc(C)c(O)c(C)c1)C2 [SR 13913] | – | – | – | – | – | – | – | – | – | – | – | 4.70 | 4.79 | –
trans-5,7-DIMETHYL-2-(3,4,5-TRIHYDROXY-PHENYL)-3,4-DIHYDRO-2H-CHROMAN-3-YL, 3,4,5,-TRIHYDROXY-BENZOIC ACID ESTER [SR 13911] | – | – | – | – | – | – | – | – | – | – | – | – | – | pIC50 (MDA-MB-231 (ER−); [4]): 4.38; pIC50 (MCF-7 (ER+); [4]): 4.63
